Experimental data: patent publication US20240279220A1, “INDOLE COMPOUNDS AND METHODS OF USE” (Genzyme Corporation, priority 2021, published 2024)

Columns and labels:
[1] = tested on: NBD1/3D; assay: Aggregation analysis using differential static light scattering (DSLS), NBD1 thermal stability; format: binding, Human; conditions: ΔTagg versus DMSO control; compound at 100 μM
Procedure, shortened: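 Thermal stabilisation reported as ΔTagg, i.e. aggregation temperature relative to averaged DMSO wells. Tagg came from the inflection of differential static light scattering imaged 25–70 °C while NBD1 (0.2 mg/ml, Tris pH 7.6 buffer containing ATP, MgCl2, DTT, glycerol) was ramped 1 °C/min.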

[2] = target: T1, CFTR (Homo sapiens, UniProt P13569, DEL508-508); assay: TECC24 recording of CFTR-mediated transepithelial chloride transport in ΔF508 homozygous CF-HBE cells; format: cell-based; conditions: 10 μM test agent, 48 hours incubation, AUC of forskolin-stimulated IEQ divided by vehicle AUC, primary CF-HBE cells
T1 construct: Primary human bronchial epithelial cells from a ΔF508 homozygous CF donor; host or cells: primary human bronchial epithelial cells (CF-HBE), ΔF508 homozygous donor
T1 sequence (P13569 with tags, fused parts or gaps DEL508-508): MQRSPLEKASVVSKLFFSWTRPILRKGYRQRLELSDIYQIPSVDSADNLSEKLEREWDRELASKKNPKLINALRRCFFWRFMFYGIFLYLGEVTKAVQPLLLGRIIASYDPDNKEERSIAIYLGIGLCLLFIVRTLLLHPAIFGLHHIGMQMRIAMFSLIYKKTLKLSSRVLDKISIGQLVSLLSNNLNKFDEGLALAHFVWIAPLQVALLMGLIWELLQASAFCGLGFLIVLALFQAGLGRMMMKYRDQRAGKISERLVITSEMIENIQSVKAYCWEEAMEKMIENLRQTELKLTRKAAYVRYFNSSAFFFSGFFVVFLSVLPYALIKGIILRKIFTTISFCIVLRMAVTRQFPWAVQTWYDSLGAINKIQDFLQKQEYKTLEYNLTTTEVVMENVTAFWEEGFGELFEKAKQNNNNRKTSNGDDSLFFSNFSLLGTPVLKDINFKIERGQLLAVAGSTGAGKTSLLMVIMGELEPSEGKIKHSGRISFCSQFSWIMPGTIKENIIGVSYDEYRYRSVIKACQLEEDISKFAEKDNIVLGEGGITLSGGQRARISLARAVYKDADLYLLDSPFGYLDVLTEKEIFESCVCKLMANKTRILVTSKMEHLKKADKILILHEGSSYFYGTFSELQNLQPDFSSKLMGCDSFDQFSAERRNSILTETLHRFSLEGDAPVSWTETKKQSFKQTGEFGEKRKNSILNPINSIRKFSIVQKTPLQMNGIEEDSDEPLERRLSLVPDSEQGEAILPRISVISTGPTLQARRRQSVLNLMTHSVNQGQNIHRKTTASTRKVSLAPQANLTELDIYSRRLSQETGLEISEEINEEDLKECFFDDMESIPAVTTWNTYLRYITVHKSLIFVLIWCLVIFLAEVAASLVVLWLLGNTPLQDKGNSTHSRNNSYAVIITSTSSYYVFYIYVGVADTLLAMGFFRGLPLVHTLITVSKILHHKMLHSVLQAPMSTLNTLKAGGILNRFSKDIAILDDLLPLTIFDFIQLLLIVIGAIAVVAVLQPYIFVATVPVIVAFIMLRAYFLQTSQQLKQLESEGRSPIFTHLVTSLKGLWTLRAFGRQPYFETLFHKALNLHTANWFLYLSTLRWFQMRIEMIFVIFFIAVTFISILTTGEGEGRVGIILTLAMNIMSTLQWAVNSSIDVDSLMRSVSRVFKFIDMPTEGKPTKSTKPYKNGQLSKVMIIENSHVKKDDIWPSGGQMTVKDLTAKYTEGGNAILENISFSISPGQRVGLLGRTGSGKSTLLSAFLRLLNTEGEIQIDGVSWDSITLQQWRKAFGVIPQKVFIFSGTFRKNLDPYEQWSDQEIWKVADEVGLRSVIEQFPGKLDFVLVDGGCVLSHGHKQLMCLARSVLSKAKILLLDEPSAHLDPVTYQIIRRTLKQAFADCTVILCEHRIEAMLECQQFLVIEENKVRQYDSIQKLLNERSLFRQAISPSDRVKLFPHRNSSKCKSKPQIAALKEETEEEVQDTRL
Protocol: The effects of a test agent on CFTR-mediated transepithelial chloride transport was measured using TECC24 recording analysis. Test agents were solubilized in DMSO. Solubilized test agents were mixed with incubation medium containing DMEM/F12, Ultroser G (2%; Crescent Chemical, catalog #67042), Hyclone Fetal Clone II (2%; GE Healthcare, catalog #SH30066.02), bovine brain extract (0.25%; Lonza, catalog #CC-4098), insulin (2.5 μg/mL), IL-13 (10 ng/mL), hydrocortisone (20 nM), transferrin (2.5 μg/mL), triiodothyronine (500 nM), ethanolamine (250 nM), epinephrine (1.5 μM), phosphoethanolamine (250 nM), and retinoic acid (10 nM). Primary human bronchial epithelial cells from a ΔF508 homozygous CF donor (CF-HBE cells; from University of North Carolina Cystic Fibrosis Tissue Procurement Center), grown on Transwell HTS 24-well cell culture inserts (Costar, catalog #3378), were exposed to test agents or controls dissolved in incubation medium. The CF-HBE cells were cultured at 36.5° C. for 48 hours before TECC24 recordings were performed in the presence or absence of test agent, a positive control or vehicle (DMSO).
Following incubation, the transwell cell culture inserts containing the test agent or control-treated CF-HBE cells were loaded onto a TECC24 apparatus (TECC v7 or MTECC v2; EP Design) to record the transepithelial voltage (VT) and resistance (TEER) using 4 AgCl electrodes per well configured in current-clamp mode. The apical and basolateral bath solutions both contained (in mM) 140 NaCl, 5 KCl, 2 CaCl2, 1 MgCl2, 10 Hepes, and 10 glucose (adjusted to pH 7.4 with NaOH). To inhibit basal Na+ absorption, the ENaC inhibitor benzamil (10 μM) was added to the bath. Then, the adenylate cyclase activator, forskolin (10 μM), was added to the bath to activate CFTR. The forskolin-stimulated Cl— transport was halted by addition of CFTR inhibitor-172 (20 μM) to the bath at the end of the experiment to confirm specificity. VT and TEER recordings were digitally acquired at routine intervals using TECC or MTECC software (EP Design). VT and TEER were transformed into equivalent transpeithelial Cl— current (IEQ), and the Area Under the Curve (AUC) of the IEQ timecourse between forskolin and CFTR inhibitor-172 addition is generated using Excel (Microsoft). Efficacy is expressed as the ratio of the test agent AUC divided by vehicle AUC. EC50s based on AUC are generated using the non-linear regression log(agonist) vs. response function in Prism software (Graphpad) with HillSlope fixed=1.
If a test agent increased the AUC of the forskolin-stimulated IEQ relative to vehicle in CF-HBE cells, and this increase was inhibited by CFTR inhibitor-172, then the test agent was considered a CFTR corrector.

TECC24 @ 10 μM over DMSO (AUC fold over DMSO) [2]	SMILES	DSLS NBD1/3D Human Stability delta-T (° C.) @ 100 (μM) [1]
A (“A” refers to AUC @10 uM >= 12)	C[C@H]1C[C@](c2cccc(CCC(=O)O)c2)(c2c[nH]c(-c3cc(Oc4c(F)cc5[nH]ccc5c4F)ccc3F)n2)CCO1 (racemic) [Example 155, 3-(3-((2S)-4-(2-(5-((4,6-difluoro-1H-indol-5-yl)oxy)-2-fluorophenyl)-1H-imidazol-5-yl)-2-methyltetrahydro-2H-pyran-4-yl)phenyl)propanoic acid]	A (A: T ≥ 10° C.)
C (“C” refers to AUC @ 10 uM <= 4)	Cc1c(Oc2ccc(F)c(-c3ncc([C@]4(c5cccc(CCC(=O)O)c5)C[C@H](O)CO4)[nH]3)c2)c(F)cc2[nH]ccc12 (racemic) [Example 274, rac-3-(3-((2r,4s)-2-(2-(2-Fluoro-5-((6-fluoro-4-methyl-1H-indol-5-yl)oxy)phenyl)-1H-imidazol-5-yl)-4-hydroxytetrahydrofuran-2-yl)phenyl)propanoic acid]	A (A: T ≥ 10° C.)
A (“A” refers to AUC @10 uM >= 12)	CC(c1ccn(-c2cccc(Oc3c(F)cc4[nH]ccc4c3S(C)(=O)=O)c2)n1)c1cccc(CCC(=O)O)c1F (single isomer, unassigned) [Example 23B, 3-(2-fluoro-3-(1-(1-(3-((6-fluoro-4-(methylsulfonyl)-1H-indol-5-yl)oxy)phenyl)-1H-pyrazol-3-yl)ethyl)phenyl)propanoic acid]	A (A: T ≥ 10° C.)
A (“A” refers to AUC @10 uM >= 12)	CC(c1cccc(CCC(=O)O)c1F)n1ccc(-c2cc(Oc3c(F)cc4[nH]ccc4c3S(C)(=O)=O)ccc2F)n1 (single isomer, unassigned) [Example 41B, 3-(2-fluoro-3-(1-(3-(2-fluoro-5-((6-fluoro-4-(methylsulfonyl)-1H-indol-5-yl)oxy)phenyl)-1H-pyrazol-1-yl)ethyl)phenyl)propanoic acid]	A (A: T ≥ 10° C.)
A (“A” refers to AUC @10 uM >= 12)	[2H]C([2H])([2H])C(C#N)(c1cccc(CCC(=O)O)c1)c1cnc(-c2cc(Oc3c(F)c(F)c4[nH]ccc4c3F)ccc2F)[nH]1 (single isomer, unassigned) [Example 64B, 3-(3-(1-Cyano-1-(2-(2-fluoro-5-((4,6,7-trifluoro-1H-indol-5-yl)oxy)phenyl)-1H-imidazol-5-yl)ethyl-2,2,2-d3)phenyl)propanoic acid]	B (B: 5-10° C.)
C (“C” refers to AUC @ 10 uM <= 4)	[2H]c1c[nH]c2c(F)c(F)c(Oc3ccc(F)c(-c4nc(C(C#N)(c5cc(F)cc(CCC(=O)O)c5)C([2H])([2H])[2H])c[nH]4)c3)c(F)c12 (single isomer, unassigned) [Example 67B, 3-(3-(1-cyano-1-(2-(2-fluoro-5-((4,6,7-trifluoro-1H-indol-5-yl-3-d)oxy)phenyl)-1H-imidazol-4-yl)ethyl-2,2,2-d3)-5-fluorophenyl)propanoic acid]	B (B: 5-10° C.)
	c1cc(CCCCc2nnn[nH]2)cc(Cc2nnc(-c3cccc(Oc4ccc5[nH]ccc5c4)c3)[nH]2)c1 [Example 260, 5-(3-(5-(3-(4-(1H-Tetrazol-5-yl)butyl)benzyl)-4H-1,2,4-triazol-3-yl)phenoxy)-1H-indole]	C (C: ≤5° C.)
	O=C(O)CSc1cccc(Cc2nnc(-c3cccc(Oc4c(F)cc5[nH]ccc5c4F)c3)[nH]2)c1 [Example 261, 2-((3-((5-(3-((4,6-Difluoro-1H-indol-5-yl)oxy)phenyl)-4H-1,2,4-triazol-3-yl)methyl)phenyl)thio)acetic acid]	C (C: ≤5° C.)
	CC(=O)NCc1c(Oc2cccc(-c3ncc(C(O)c4cccc(CCC(=O)O)c4)[nH]3)c2)ccc2[nH]ccc12 (stereo not shown) [Example 262, 3-(3-((2-(3-((4-(Acetamidomethyl)-1H-indol-5-yl)oxy)phenyl)-1H-imidazol-5-yl)(hydroxy)methyl)phenyl)propanoic acid]	A (A: T ≥ 10° C.)
	CC(C)(C)NCc1c(Oc2cccc(-c3ncc(C(O)c4cccc(CCC(=O)O)c4)[nH]3)c2)ccc2[nH]ccc12 (stereo not shown) [Example 263, 3-(3-((2-(3-((4-((tert-Butylamino)methyl)-1H-indol-5-yl)oxy)phenyl)-1H-imidazol-5-yl)(hydroxy)methyl)phenyl)propanoic acid]	A (A: T ≥ 10° C.)
	COC(=O)CCc1cccc(C(C)(O)c2cnc(-c3cccc(Oc4ccc5[nH]ccc5c4CNC(C)=O)c3)[nH]2)c1 (stereo not shown) [Example 264, Methyl 3-(3-(1-(2-(3-((4-(acetamidomethyl)-1H-indol-5-yl)oxy)phenyl)-1H-imidazol-5-yl)-1-hydroxyethyl)phenyl)propanoate]	A (A: T ≥ 10° C.)
	O=C(O)CCc1cccc(Cc2cnc(-c3cc(Oc4c(F)cc5[nH]ccc5c4CNCC(F)(F)F)ccc3F)[nH]2)c1 [Example 265, 3-(3-((2-(2-Fluoro-5-((6-fluoro-4-(((2,2,2-trifluoroethyl)amino)methyl)-1H-indol-5-yl)oxy)phenyl)-1H-imidazol-5-yl)methyl)phenyl)propanoic acid]	B (B: 5-10° C.)
	O=C(O)CCc1cccc(C(O)c2cnc(-c3cccc(Oc4c(F)cc5[nH]ccc5c4-c4ccn[nH]4)c3)[nH]2)c1 (stereo not shown) [Example 267, 3-(3-((2-(3-((6-Fluoro-4-(1H-pyrazol-5-yl)-1H-indol-5-yl)oxy)phenyl)-1H-imidazol-5-yl)(hydroxy)methyl)phenyl)propanoic acid]	B (B: 5-10° C.)
	OCCCc1cccc(Cc2cnc(-c3cc(Oc4c(F)cc5[nH]ccc5c4F)ccc3F)[nH]2)c1F [Example 268, 3-(3-((2-(5-((4,6-Difluoro-1H-indol-5-yl)oxy)-2-fluorophenyl)-1H-imidazol-5-yl)methyl)-2-fluorophenyl)propan-1-ol]	C (C: ≤5° C.)
	O=P(O)(O)OCCCc1cccc(Cc2cnc(-c3cc(Oc4c(F)cc5[nH]ccc5c4F)ccc3F)[nH]2)c1F [Example 269, 3-(3-((2-(5-((4,6-Difluoro-1H-indol-5-yl)oxy)-2-fluorophenyl)-1H-imidazol-5-yl)methyl)-2-fluorophenyl)propyl dihydrogen phosphate]	C (C: ≤5° C.)
	O=C(O)CCc1cccc(Cc2cnc(-c3cccc(Oc4c(F)cc5[nH]ccc5c4-c4ccn[nH]4)c3)[nH]2)c1 [Example 271, 3-(3-((2-(3-((6-Fluoro-4-(1H-pyrazol-5-yl)-1H-indol-5-yl)oxy)phenyl)-1H-imidazol-4-yl)methyl)phenyl)propanoic acid]	B (B: 5-10° C.)
	COc1cc(F)c(-c2ncc(C(C)(O)c3cccc(CCC(=O)O)c3)[nH]2)cc1Oc1c(F)cc2[nH]ccc2c1C (stereo not shown) [Example 281, 3-(3-(1-(2-(2-fluoro-5-((6-fluoro-4-methyl-1H-indol-5-yl)oxy)-4-methoxyphenyl)-1H-imidazol-5-yl)-1-hydroxyethyl)phenyl) propanoic acid]	B (B: 5-10° C.)

SMILES	TECC24 @ 10 μM over DMSO (AUC fold over DMSO) [2]	DSLS NBD1/3D Human Stability delta-T (° C.) @ 100 (μM) [1]
[2H]C([2H])([2H])C(C#N)(c1cccc(CCC(=O)O)c1)c1cnc(-c2cc(Oc3c(F)c(F)c4[nH]ccc4c3F)ccc2F)[nH]1 (single isomer, unassigned) [Example 64A, 3-(3-(1-Cyano-1-(2-(2-fluoro-5-((4,6,7-trifluoro-1H-indol-5-yl)oxy)phenyl)-1H-imidazol-5-yl)ethyl-2,2,2-d3)phenyl)propanoic acid]	B (“B” refers to AUC @10 uM between 4-12)	B (B: 5-10° C.)
